Assay results published in patent publication US20200384072A1, “THERAPY OF IONIZING RADIATION-INDUCED DISORDERS” (SCK-CEN, priority 2019, published 2020).
“Also recorded” adds a separate entry of the source.

Key:
RBE4 cells [1] = assay: γ-H2AX counts after local 3×3 mm X-ray irradiation (irradiated and bystander zones), RBE4 cells; type: cell-based, rat; settings: 1 Gy, 3 h post-irradiation, Cbx 50 μM, Gap26 161 μM, TAT-Gap19 200 μM, Xestospongin C 5 μM
Experimental: (§1) A defined area of the cell culture dishes were exposed to X-rays (1Gy or 20 Gy) by using a small animal radiation research platform (SARRP, Xstrahl, 220 kV, 13 mA), making use of a 3×3 mm collimator. Whole dish irradiation was done using a 10×10 cm broad-beam collimator, while localized Irradiation was performed with a 3×3 mm collimator. A Gafchromic RTQA2 film, with a sensitivity of 0.02 Gy, was placed underneath the cell dishes in order to delineate the irradiated zone.
(§2) Cells were fixed for 25 min with 4% formaldehyde (VWR) and blocked for 30 min with blocking buffer (5% normal goat serum, 1% bovine serum albumin (BSA), 0.2% Triton X-100 in PBS D+). Overnight incubation with primary antibody (1/500 anti-γ-H2AX in dilution buffer, 1/10 blocking buffer in PBS D+) was followed by a 1 h incubation with 1/400 XX-biotin-goat-anti-mouse antibody in dilution buffer, followed by a 1 h incubation with 1/400 streptavidin-alexa488 in PBS D+. Nuclei were stained with 1 μg/mL DAPI in PBS D+ for 10 min and cells were kept in PBS D+ supplemented with NaN3 at 4° C. All steps except the overnight incubation which was carried out at 4° C., were carried out at room temperature and cell cultures were rinsed thoroughly with PBS D+ between all incubation steps. Imaging was performed with an automated BD Pathway 435 imaging system (10× objective, 10×10 montage resulting in an overall image size of 8.5×6.5 mm). We then quantified the number of γ-H2AX-foci positive nuclei in the directly irradiated and bystander areas and expressed the count as a percentage relative to the number of nuclei and subtracted the percentage of background γ-H2AX signal in non-irradiated paired control cultures for each experiment. For counting γ-H2AX foci, images were thresholded to remove background pixel noise below the foci level. Where applicable, results were normalized against vehicle (bar charts with a 100% vehicle bar without statistical variability or a horizontal line).

[2] = tested on: primary brain microvascular endothelial cells (pBMECs); assay: γ-H2AX counts after local 3×3 mm X-ray irradiation (irradiated and bystander zones), pBMECs; type: cell-based, mouse; settings: 1 Gy, 3 h post-irradiation
Experimental: Cortices, from 10-12 week old mice, were isolated by removing cerebellum, striatum, optic nerves, brain white matter, outer vessels and meninges. After homogenization with a Dounce homogenizer in WBB (Washing Buffer B: HMS, 10 mM Hepes, 0.35 g/L NaHCO3, 0.1% BSA), the homogenate was mixed with 30% dextran in WBB and centrifuged at 3000×g for 25 min at 4° C. The pellet containing the vascular component was then resuspended in WBB and filtered through a 60 μm NY60 Nylon Net Filter (Millipore, Darmstadt, Germany). Following centrifugation at 1000×g for 7 min at room temperature, the pellet was digested in collagenase/dispase supplement with DNase I (Roche Diagnostics, Vilvoorde, Belgium) and TLCK (Tosyl, Lysin chloromethyl ketone, sigma-aldrich) for 33 min at 37° C. in a shaking water bath. The digested capillary suspension was then seeded after multiple washing steps on wells coated with matrigel or glass coated with Corning Cell-Tak (VWR, Leuven, Belgium). For the isolation of intact capillaries the protocol was aborted just before the digestion step.
as §1, §2

RBE4 cells [3] = assay: Irradiation-induced ATP release, RBE4 cells; type: cell-based, rat; settings: broad-beam 1 Gy, 5 min post-irradiation, BAPTA-AM 10 μM, NALC 1 mM, c-PTIO 100 μM
Experimental: ATP was measured using a luciferin-luciferase assay kit (Sigma-Aldrich) in combination with a luminometer plate reader (Victor3 1420 multi label counter; Perkin Elmer, Zaventem, Belgium).
Extracellular ATP measurements were initially carried out at different time-points post-irradiation, the effect of blockers on ATP release was tested at the 5 min post-irradiation time-point (time of maximum ATP release).

RBE4 cells [4] = assay: γ-H2AX counts in electroporation-loaded bystander zone, RBE4 cells; type: cell-based, rat; settings: BH4-Bcl-2 20 μM, BAPTA 60 μM, SOD 100 μg/mL (3 μM)
Experimental: as §2
Cells were grown to near confluency on 4-well plates coated with collagen. Cell monolayer cultures were washed three times with HBSS-Hepes 25 mM (pH 7.2-7.4) and subsequently three times with a low conductivity electroporation buffer (4.02 mM KH2PO4, 10.8 mM K2HPO4, 1.0 mM MgCl2, 300 mM sorbitol, 2.0 mM Hepes, pH 7.4). They were placed 400 μm underneath a two-wire Pt-Ir electrode on the microscopic stage and electroporated in the presence of a tiny amount of electroporation solution (10 μl) containing 100 μg/mL SOD, 60 μM BAPTA or 20 μM BH4-Bcl2 combined with 100 μM 10 kDa DTR. […]

RBE4 cells [5] = assay: Cytosolic Ca2+ imaging after medium transfer from irradiated to recipient RBE4 cells; type: cell-based, rat
Experimental: Cells were seeded on glass coverslips (18 mm 0) coated with 3.5 μg/cm^2 Corning cell-tak (VWR, Leuven, Belgium) and ester loaded for 45 min with 10 μM Fluo-3-AM in HBSS-HEPES supplemented with 1 mM of probenecid and 0.01% of pluronic F127 at room temperature followed by de-esterification over 15 min. Imaging was performed using an inverted fluorescence microscope equipped with a ×40 oil immersion objective and an EM-CCD camera (QuantEM™ 512SC CCD camera, Photometrics, Tucson, Ariz.). For direct Ca^2+ measurements the loaded cells were irradiated and transferred to the microscopy stage. For medium transfer, the loaded cells were superfused for 1 min with HBSS-Hepes (1 mM), followed by 4 min with HBSS-Hepes conditioned by irradiated cultures. Fluorescence intensity changes in the cells were analyzed with custom-developed FluoFrames software (L. Leybaert, Ghent, Belgium). Ca^2+ changes were quantified as the area under the curve (AUC) of the Ca^2+ traces.

Compound: CC(=O)OCOC(=O)CN(CC(=O)OCOC(C)=O)c1ccccc1OCCOc1ccccc1N(CC(=O)OCOC(C)=O)CC(=O)OCOC(C)=O [BAPTA-AM, 1.2-bis-(2-aminophynoxy)-ethane-N,N,N′,N′,tetraacetic acid acetoxy methyl ester]
- γ-H2AX counts in the bystander zone (normalized to vehicle) (RBE4 cells [1]): less clear responses
- γ-H2AX counts in the irradiated zone (normalized to vehicle) (RBE4 cells [1]): less clear responses
- γ-H2AX counts in the bystander zone (normalized to vehicle) [2]: significantly reduced the γ-H2AX scores in both areas; also recorded: almost zero
- γ-H2AX counts in the irradiated area (normalized to vehicle) [2]: significantly reduced the γ-H2AX scores in both areas
- irradiation-induced ATP release (RBE4 cells [3]): inhibited irradiation-induced ATP release; also recorded: significantly decreased ATP release

Compound: O=C([O-])CN(CC(=O)[O-])c1ccccc1OCCOc1ccccc1N(CC(=O)[O-])CC(=O)[O-].[K+].[K+].[K+].[K+] [BAPTA]
- γ-H2AX scores in the electroporation-loaded bystander zone (normalized to vehicle) (RBE4 cells [4]): significantly decreased γ-H2AX counts; also recorded: strongly reduced the γ-H2AX scores

Compound: CC(=O)N[C@@H](CS)C(=O)O [NALC, N-acetyl-L-cystein]
- γ-H2AX counts in the bystander zone (normalized to vehicle) (RBE4 cells [1]): less clear responses
- γ-H2AX counts in the irradiated zone (normalized to vehicle) (RBE4 cells [1]): less clear responses
- γ-H2AX counts in the bystander zone (normalized to vehicle) [2]: significantly reduced the γ-H2AX scores in both areas; also recorded: almost zero
- γ-H2AX counts in the irradiated area (normalized to vehicle) [2]: significantly reduced the γ-H2AX scores in both areas
- irradiation-induced ATP release (RBE4 cells [3]): inhibited irradiation-induced ATP release; also recorded: significantly decreased ATP release
- AUC of Ca2+ transients in recipient bystander cells (RBE4 cells [5]; inhibitor added to the irradiated culture 30 min before irradiation, NALC 1 mM): reduced the area under the curve (AUC)

Compound: Cc1nc(N=Nc2ccc(S(=O)(=O)O)cc2S(=O)(=O)O)c(COP(=O)(O)O)c(C=O)c1O [PPADS, Pyridoxalphosphate-6-azopehyl-2′,4′-disolfonic acid]
- γ-H2AX counts in the bystander zone (normalized to vehicle) (RBE4 cells [1]): significantly reduced γ-H2AX scores
- [Ca2+]i responses in recipient cells (RBE4 cells [5]; inhibitor added to the recipient cells, PPADS 50 μM): inhibited the [Ca^2]i responses

Compound: C1CCC[C@H]2CCCN3CC[C@@H](CCCCCC[C@@H]4CCCN5CC[C@@H](CC1)O[C@@H]45)O[C@@H]23 [Xestospongin C]
- γ-H2AX counts in the bystander zone (normalized to vehicle) (RBE4 cells [1]): significantly reduced γ-H2AX counts in the bystander zone

Compound: CC1(C)N([O])C(c2ccc(C(=O)O)cc2)=[N+]([O-])C1(C)C [c-PTIO]
- γ-H2AX counts in the bystander zone (normalized to vehicle) (RBE4 cells [1]): less clear responses
- γ-H2AX counts in the irradiated zone (normalized to vehicle) (RBE4 cells [1]): less clear responses
- γ-H2AX counts in the bystander zone (normalized to vehicle) [2]: significantly reduced the γ-H2AX scores in both areas
- γ-H2AX counts in the irradiated area (normalized to vehicle) [2]: significantly reduced the γ-H2AX scores in both areas
- γ-H2AX counts in the bystander zone (normalized to vehicle) ([2]; listed as C-PTIO): almost zero
- irradiation-induced ATP release (RBE4 cells [3]): strongly reduced irradiation-induced ATP release
- irradiation-induced ATP release (RBE4 cells [3]; listed as C-PTIO): inhibited irradiation-induced ATP release

Compound: BH4-Bcl-2: IP3 receptor blocking peptide (amino acids 6-30 of Bcl-2; MW 3.6 kDa) (RTGYDNREIVMKYIHYKLSQRGYEW; UniProt P10415 6-30, looked up, fragment)
- γ-H2AX scores in the electroporation-loaded bystander zone (normalized to vehicle) (RBE4 cells [4]): strongly reduced the γ-H2AX scores
- γ-H2AX scores in the electroporation-loaded bystander zone (normalized to vehicle) (RBE4 cells [4]; listed as BH4-Bcl2): significantly decreased γ-H2AX counts
